Legend:
[1] = tested on: Human keratinocytes (HaCaT); assay: GSH modulation assay against hydrogen peroxide induced oxidative stress (GSH ELISA); type: cell-based; settings: H2O2 500 μm 3 hours, tested concentration 17.61 μg/ml (positive control)
Method: For conducting the analysis, 10 mg of Pine bark extract from Pinus roxburghii (Pinorox®) was dissolved in a DMSO (Dimethyl sulfoxide) solution. The volume of the test solution was made up using DMEM-HG (Dulbecco's Modified eagle Medium) and supplemented with 2% inactivated FBS (Fetal bovine serum) to acquire a solution with concentration of 10 mg/ml. The test solution was further proceeded with sterilization using syringe filtration. For carrying out the cytotoxic analysis, a two-fold serial dilution was prepared. The cell line of Human keratinocytes (HaCaT) was obtained from Addex Bio, USA and were cultured in DMEM-HG supplemented media with 10% inactivated fetal bovine serum (FBS), penicillin (100 IU/mL), streptomycin ([…]) and amphotericin B (5 μg/mL) in a wet atmosphere of 5% CO2 at a temperature of 37° C. until confluent. […] The samples were analyzed to estimate the levels of GSH using Elab science GSH ELISA kit by following the manufacturer's instruction. […]

[2] = Total antioxidant capacity (TAC) assay, sulphuric acid/sodium phosphate/ammonium molybdate reagent; settings: concentration 1000 μg/ml, 90 minutes at 95° C.
Method: The assay was performed to evaluate the total antioxidant capacity of a Pinorox® i.e. Pine bark extract from Pinus roxburghii against the standard ascorbic acid for in-vitro study. Antioxidants are compounds that are capable of inhibiting the process of oxidation that occurs under the influence of atmospheric oxygen or reactive oxygen species. The antioxidants are employed for stabilizing polymeric products, petrochemicals, cosmetics and food stuff along with pharmaceuticals. Antioxidants are involved in defense mechanisms of an organism against the associated pathologies in order to attack the free radicals. The test is carried out to check the total antioxidant capacity of a pine bark extract in order to avoid nutritional loss. The total antioxidant capacity of Pinorox® i.e. Pine bark extract from Pinus roxburghii was found out to be 756.993±0.150 mM equivalent of the ascorbic acid having 1000±0.027 mM at 1000 μg/mL. Pine bark extract of 5.5 mg each/ascorbic acid were subjected to dissolve in 0.5 ml of DMSO (Dimethyl sulfoxide) in a separate container. 0.244 ml of 0.6 M sulphuric acid was added to a 15 ml of distilled water. […] The absorbance was recorded at […] via ELISA (enzyme-linked immunosorbent assay) reader and the values were recorded. The total activity of antioxidant was expressed as mM which is equivalent of ascorbic acid. […]

Compound: O=C1O[C@H]([C@@H](O)CO)C(O)=C1O [Ascorbic acid]
- % Increase in GSH level over hydrogen peroxide control [1]: 95.59±0.03%
- TAC (total antioxidant capacity) [2]: 1000 ± 0.027 mM equivalent of ascorbic acid
- TAC (total antioxidant capacity) ([2]; listed as ascorbic acid): 1000±0.027 mM equivalent of ascorbic acid
